What was measured:
Fuc-TIII = target: T1, Fuc-TIII (Homo sapiens, UniProt P21217); assay: Fucosyltransferase assay, extracts of COS-1 cells expressing the Lewis fucosyltransferase; assay type: biochemical; settings: for fucose transfer to acceptor: extracts containing the Lewis blood group fucosyltransferase, same conditions as Fuc-TIV; for Relative Activity (%) with Fuc-TIII: relative product formation rate, N-acetyllactosamine = 100, acceptor 20 mM (2-fucosyllactose 5 mM), GDP-[14C]fucose 3 μM, transfected COS-1 cell extract
T1 construct: showing that this insert is essentially full-length; expressed in transfected cells; host or cells: COS-1 cells (monkey kidney), transient DEAE-dextran transfection, 1% Triton X-100 extract
T1 sequence (P21217 1-361): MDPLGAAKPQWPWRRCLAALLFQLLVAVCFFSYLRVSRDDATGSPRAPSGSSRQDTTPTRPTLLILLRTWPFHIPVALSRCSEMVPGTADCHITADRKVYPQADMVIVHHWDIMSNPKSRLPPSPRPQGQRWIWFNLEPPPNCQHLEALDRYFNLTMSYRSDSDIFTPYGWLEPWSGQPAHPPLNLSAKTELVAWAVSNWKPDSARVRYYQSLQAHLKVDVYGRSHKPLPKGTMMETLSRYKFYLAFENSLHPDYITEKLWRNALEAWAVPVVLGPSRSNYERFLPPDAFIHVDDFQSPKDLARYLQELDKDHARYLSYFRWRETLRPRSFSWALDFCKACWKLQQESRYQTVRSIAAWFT
Experimental: Fucosyltransferase assays were performed in 50 mM MOPS pH 6.5, 25 MM MnCl2 10 MM L-fucose, 5 mM ATP, […] GDP-[^14C]fucose (specific activity of 600,000 cpm/nmol; 35,000 cpm per assay), 2.5 mM acceptor (e.g. 2′-fucosyllactose, N-acetyllactosamine, lactose or lacto-N-biose I), and up to 10 μl of cell extract, in a final volume of 20 μl. When determining α(1,3)FT specific activities achieved during the sib selection process, and in the analysis of the protein A-fucosyltransferase fusion protein experiments, the amount of added cell extract and incubation times were adjusted to yield (linear) reaction rates reflecting accurate specific activities. Reactions were incubated at 37° C. for 2 or 6 hours, and then terminated by the addition of 20 μl of ethanol, followed by dilution with 500 μl of H2O. The terminated, diluted reactions were then centrifuged at 15,000×g for 5 min. Fifty μl of each reaction supernatant was counted to determine total radioactivity, and 200 μl of each was fractionated by Dowex-1 chromatography. The neutral radiolabelled material eluting from the column was then counted directly as a measure of product formation. Enzyme specific activity is defined as pmol of fucose transferred from GDP-fucose to acceptor per mg cell extract protein per hour. Neutral products were also further analyzed as described below by descending paper chromatography and by HPLC to confirm their identity. Parallel reactions were done in the absence of added acceptor to allow correction for transfer to endogenous acceptor molecules and for substrate and product hydrolysis.
Cell extracts containing 1% Triton X-100 were prepared from transfected COS-1 cells. Fucosyltransferase assays were performed in a total volume of 20 μl, and contained 50 mM sodium cacodylate, pH 6.2, 5 mM ATP, 10 mM fucose, 20 mM MnCl2, 3 μM GDP-^14C-fucose, and 5 μl (30 μg protein) of cell extract. Acceptor substrates were added to a final concentration of 20 mM. Reactions were incubated at 37° C. for 1 hour and terminated by addition of 20 μl ethanol, followed by addition of 600 μl of distilled water. An aliquot of each reaction (50 μl) was subjected to scintillation counting to determine total radioactivity in the reaction. Another aliquot (200 μl) was applied to a column containing 400 μl of Dowex IX2-400, formate form. The flow through fraction, and […] of a subsequent water elution, were collected and pooled, and an aliquot was subjected to scintillation counting to quantitate incorporation of radioactive fucose into neutral product. Descending paper chromatography was used to confirm the structure of the product formed with the acceptor N-acetyllactosamine. The neutral product in the Dowex column eluate was concentrated by lyophilization, resuspended in a small volume of water, and fractionated through Whatman No. 40 in phenol/isopropanol/formic acid/water (85:5:10:100, lower layer). After chromatography (40 hours), the air-dried chromatogram was cut into 1 cm strips and the strips eluted into 2 ml of water. Radioactivity in each eluate was determined by scintillation counting after mixing with 10 ml of scintillation cocktail.
Table 2 presents the relative product formation rates obtained with low molecular weight acceptor substrates using cell extracts containing recombinant human α(1,3)fucosyltransferases expressed in transfected COS-1 cells, as described in the preceding sections. Fucosyltransferase assays were performed as described in detail in Lowe et al, J. Biol. Chem., (1991), 266:17467-17477; Weston et al, J. Biol. Chem. (1992), 267:4152-4160; and Kukowska-Latallo et al, Genes. Devel., (1990), 4:1288-1303. For each enzyme, the same extract was used, with saturating amounts of each acceptor oligosaccharide (20 mM, except for 2′-fucosylactose which was used at 5 mM), and GDP-^14C]fucose was present at 3 μM. Reaction times and enzyme amounts were adjusted to ensure a linear rate of product formation (less than 15% of the GDP-fucose substrate consumed). […]

[1] = test system: monoclonal anti-H antibody (BE2); assay: Hapten inhibition of BE2 anti-H antibody binding to mH1-12 cells; design: species or system mouse; settings: antibody preincubated with hapten, 20 mM
Experimental: Immunofluoroscence was performed on cells plated on 8-well tissue culture chamber slides (Lab-Tek). Cells were plated at a density of 5×10^4/well 24 h prior to analysis. Anti-H and anti-A primary antibodies were diluted in PBS containing bovine serum albumin at 2 mg/ml, to a final concentration of 10 μg/ml. Cell-bound primary antibodies were detected with FITC-conjugated goat anti-mouse IgM, diluted to 40 μg/ml in PBS containing 2 mg/ml bovine serum albumin.
Hapten Inhibition—Plated cells were washed twice with PBS, and were incubated for 30 min at 4° C. with 100 μl of diluted anti-H antibody, or with 100 μl of diluted antibody containing different oligosaccharide haptens, each at a concentration of 20 mM. The chambers were then washed twice, and 100 μl of FITC-conjugated goat anti-mouse IgM was added. After 30 min at 4° C., the chambers were washed three times with PBS, and the cells were fixed at room temperature for 10 min in 3.7% formaldehyde in PBS. The cells were washed twice with PBS, the chambers were removed, and the slide was mounted in PBS containing 25% glycerol. Cells were examined by fluorescence microscopy using a Zeiss Axiophot photomicroscope equipped with fluorescence epiillumination.

Compound | Relative Activity (%) with Fuc-TIII (Fuc-TIII) [%] | fucose transfer to acceptor (Fuc-TIII) [pmol/mg/h] | inhibition of BE2 anti-H antibody binding to mH1-12 cells by hapten [1]
CC(=O)N[C@H]1C(O)O[C@H](CO)[C@@H](O[C@@H]2O[C@H](CO)[C@H](O)[C@H](O)[C@H]2O)[C@@H]1O (some centres unmarked) [N-acetyllactosamine] | 100 | 526 | 
CC(=O)N[C@@H]1[C@@H](O[C@@H]2O[C@H](CO)[C@H](O)[C@H](O)[C@H]2O)[C@H](O)[C@@H](CO)O[C@@H]1O [lacto-N-biose I] | 420 |  | 
Fucα(1,2)Galβ(1,4)Glc [2-fucosyllactose] | 254 |  | inhibition of binding

Second part, led by results:

Relative Activity (%) with Fuc-TIII (Fuc-TIII) [%] | Compound | fucose transfer to acceptor (Fuc-TIII) [pmol/mg/h] | inhibition of BE2 anti-H antibody binding to mH1-12 cells by hapten [1]
145 | OC[C@H]1O[C@@H](O[C@H]2[C@H](O)[C@@H](O)C(O)O[C@@H]2CO)[C@H](O)[C@@H](O)[C@H]1O (some centres unmarked) [lactose] |  | 
56 | CC(=O)NC1C(O)OC(CO)C(OC2OC(CO)C(O)C(OC3(C(=O)O)CC(O)C(NC(C)=O)C(C(O)C(O)CO)O3)C2O)C1O (stereo not drawn) [α(2,3)sialyllactosamine, NeuAcα(2→3)Galβ(1→4)GlcNAc] | 297 | 

Source: US20020102688A1, “Methods and products for the synthesis of oligosaccharide structures on glycoproteins, glycolipids, or as free molecules, and for the isolation of cloned genetic sequences that determine these structures” (The Regents of the University of Michigan, priority 1990, published 2002)
